Source: patent US10632127B2, “Targeted notch pathway inhibitors” (Hoffmann-La Roche Inc., priority 2015, dated 2020)
Like-named read-outs stand apart in the source and are kept apart here.

Experiments:
[1] = biological target: Notch signal transduction pathway; experiment: In vitro Notch signal transduction pathway activity assay (DR215/F2 luciferase reporter); type: cell-based, human; details: for IC50 for blockade of the Notch pathway, range in words: DR215/F2 cell reporter assay; for IC50: Homo sapiens, 215/F2 reporter cell line, 19 h, mean of at least 3 experiments
Method: The compounds were dissolved in dimethyl sulfoxide (DMSO) at 10 mM stock solution, aliquoted and stored at −4° C. until use, then diluted in PBS or cell culture medium. In the experimental settings, controls containing increasing concentrations of DMSO, corresponding to the amount of DMSO of the diluted compounds were always included. For in vivo experiments, the compounds were dissolved in 0.9% NaCl, incubated 30 min at 40° C. and sonicated for 5 min.
The requirement of proteolytic activation of the prodrugs to inhibit Notch cleavage by the γ-secretase, was investigated using a reporter assay (Table 3). The DR215/F2 cell line expresses a reporter construct designed to monitor the activity of the Notch signal transduction pathway. The DR215/F2 cell line 39 carries two transgenes: the firefly luciferase reporter gene expressed under the control of the Gal4 promoter and the human Notch1 activator gene fused with the yeast Gal4 transcription factor. This assay confirmed that the prodrugs were able to inhibit γ-secretase and the activation of the Notch pathway. The DR215/F2 cell reporter assay was also used to determine the IC50 for blockade of the Notch pathway by all the compounds designed and prepared.
The values were determined using the 215/F2 reporter cell line for Notch activation by the γ-secretase. All values are the mean of at least 3 experiments.
The preparation and characterization of rat brain-derived EC219 endothelial cells have been described in Juillerat-Jeanneret, L. et al. In Vitro Cell. Dev. Biol. 1992, 28A, 537-543. These cells express high levels of APA and γ-GT activities and can be used for determining kinetics in living cells, and were chosen as APA- and γ-GT-positive representative cell models. EC219 cells were grown in DMEM medium containing 1 g/l glucose, 10% heat-inactivated fetal calf serum (FCS, EuroClone, UK) supplemented with 100 U/mL penicillin and 100 μg/mL streptomycin (P/S) on uncoated cell culture plastic ware. The HEK293 and HK2 human kidney cells are available from the ATCC (American Tissue Culture Collection, Manassas, Va., USA). HEK293 cells were grown on uncoated cell culture plastic ware in Iscove modified Dulbecco medium (IMDM, Life Technologies) containing 10% FCS and P/S. HK2 cells were grown on uncoated cell culture plastic ware in DMEM/F-12 GlutaMAX medium (Gibco) containing 5% FCS, P/S, 1% ITS (1.0 mg/ml bovine insulin, 0.55 mg/ml human transferrin and 0.5 μg/ml sodium selenite, Sigma-Aldrich) and 5 ng/ml hydrocortisone. The human HEK293-derived DR215/F2 embryonic kidney cell line, stably transfected with pFR Luc and APP-Notch Gal (plasmid DR215) as described in WO 2006/061136 A2 and Brockhaus, M. Neuroreport 1998 9, 1481-1486, were maintained using IMDM with 10% FCS supplemented with P/S and kept under double-selection with 150 μg/ml G-418 and 50 μg/ml hygromycin B on coated (1:100 Poly-L-lysine) cell culture plastic ware. In this assay, the Notch-Gal4 protein is bound to the cell membrane via its trans-membrane domain. The Notch intracellular domain is released by proteolytic cleavage mediated by the γ-secretase and moves to the cell nucleus where it activates the reporter luciferase gene transcript. Inhibition of γ-secretase thus decreases luciferase activity. Briefly, cultures were grown in 96-well microplates to 80% confluence; the cells were then washed in PBS and exposed to decreasing concentrations of the γ-secretase-inhibitor analogues in complete IMDM culture medium without red phenol at 37° C. for 19 h. Then 75 μl of supernatant from each well was removed and the luciferase activity was determined by adding 25 μl of Steady-Glo luciferase assay reagent (Promega).

[2] = Pharmacokinetic assessment in male Wistar rats (i.v.); type: in vivo, rat; details: for 8 in kidney, relative amount (arbitrarily set to 100%) / 8 in liver, relative amount (kidney = 100%) / concentration at 0.25 h / concentration at 1.25 h / concentration at 2.2 h / concentration at 7 h: 8 3.5 mg/kg i.v.; for concentration at 0.25 h / concentration at 1.25 h / concentration at 2.2 h / concentration at 7 h: rat, iv
Method: For PK evaluation, the compounds were administered i.p to male C57BL/6 mice in suspension (gelatine/saline 7.5%/0.62% in water) using an administration volume of 4 mL/kg. Blood samples were collected in tubes containing EDTA, plasma was separated by centrifugation and stored at −80° C. Liver and kidney samples (˜100 mg aliquots) were homogenized in three volumes of water using Precellys tissue homogenization tubes (precellys.com). 25 μL of each tissue homogenate was further diluted with 25 μL blank plasma to produce the final tissue homogenate for extraction. All samples were analyzed using protein precipitation followed by LC-MS/MS analysis. Briefly, 50 μL plasma or final tissue homogenate were mixed with 50 μL 0.5M HClO4/acetonitrile 9/1 (containing 200 ng/mL internal standard bosentan). Samples were stirred and 300 μL water was added followed by centrifugation at 5600 rpm (4° C., 10 min). 10 μL supernatant was analyzed by LC/MS analysis. Calibration standards in plasma were prepared the same way. The LC column and conditions used were: Phenomenex, Polar RP, 4 μm, 50×2.1 mm at 0.4 mL/min flow rate with a 3 min gradient from 95% solvent A to 95% solvent B (Solvent A: Water/ACN/HCOOH, 90:10:0.1+10 mM NH4 formate; Solvent B: Water/ACN/HCOOH, 10:90:0.1+10 mM NH4 formate). Mass spectrometric conditions were: Thermo TSQ Vantage with positive heated electrospray ionization in MS/MS mode. Compounds mass transitions monitored were m/z 320.7 to 119.9. PK parameters for all studies were calculated using Phoenix WinNonlin Software.
We next determined the stability, tissue distribution and cleavage rate in plasma, liver and kidney of the designed prodrugs in male Wistar rats. In the in vivo screen, the kinetics and distribution of the prodrugs Ac-γ-Glu-SecrI (13a) and Ac-γ-Glu-O-SecrI (13c) were compared with the active γ-secretase inhibitor SecrI (8). After i.v. administration in male Wistar rats, the disappearance of the prodrugs and the formation of the active amine-SecrI (11a), amine-O-SecrI (11b) and SecrI (8) were compared in plasma, liver and kidney (Table 7A-C). First, we determined the pharmacokinetics (PK) behavior of SecrI (8) following i.v. administration (Table 7A). […] Liver and kidney exposure were much higher, with same exposure in liver and kidney. […] The selectivity towards kidney stayed constant over time. The carbonate analogue Ac-γ-Glu-O-SecrI (13c) prodrug was converted to a lower extent than the Ac-γ-Glu-SecrI (13a) to amine-O-SecrI (11b) but more to the linker free γ-secretase inhibitor 8 (Table 7C).
Plasma and tissue concentrations of administered compound (A-C) and formed amine-SecrI (11a), amine-O-SecrI (11b) or SecrI (8) (B-C) were determined following i.v. administration in rats (no standard deviation given due to sparse sampling; n≤3 rats per time point). Numbers in parentheses represent relative amounts with the exposure of kidney arbitrarily set at each time point to 100%. […] BQL=below quantifiable limit.

With `C[C@H]1Oc2ccc(F)cc2N(CCO)C(=O)[C@H]1NC(=O)[C@@](C)(O)C(=O)NCC(F)(F)C(F)(F)F` [Compound 8, N-[(6R,7S)-2-Fluoro-9-(2-hydroxy-ethyl)-6-methyl-8-oxo-6,7,8,9-tetrahydro-5-oxa-9-aza-benzocyclohepten-7-yl]-2-(S)-hydroxy-2-methyl-N′-(2,2,3,3,3-pentafluoro-propyl)-malonamide] the “IC50 for blockade of the Notch pathway, range in words” value (“IC50 for blockade” below) [1] was “low nanomolar range”, the IC50 [1] was 4.4 nM and the “8 in kidney, relative amount (arbitrarily set to 100%)” value ([2]; 0.25 h) was “(100) %”. The “8 in liver, relative amount (kidney = 100%)” value ([2]; 0.25 h) was “(93) %”, the “8 in kidney, relative amount (arbitrarily set to 100%)” value ([2]; 1.25 h) was “(100) %” and the “8 in liver, relative amount (kidney = 100%)” value ([2]; 1.25 h) was “(101) %”. For the same compound, the “8 in kidney, relative amount (arbitrarily set to 100%)” value ([2]; 2.2 h) was “(100) %”, the “8 in liver, relative amount (kidney = 100%)” value ([2]; 2.2 h) was “(133) %” and the “8 in kidney, relative amount (arbitrarily set to 100%)” value ([2]; 7 h) was “(100) %”. The “8 in liver, relative amount (kidney = 100%)” value ([2]; 7 h) was “(126) %”, the “Plasma concentration of formed 8” value ([2]; 13c 1.5 mg/kg i.v., 4 h) was “BQL” and the “Formed 8 in kidney, relative amount (arbitrarily set to 100%)” value ([2]; 13c 1.5 mg/kg i.v., 7 h) was “(100) %”. For the same compound, the “Formed 8 in liver, relative amount (kidney = 100%)” value ([2]; 13c 1.5 mg/kg i.v., 7 h) was “(43) %”, the “Plasma concentration of formed 8” value ([2]; 13c 1.5 mg/kg i.v., 7 h) was “BQL” and the “kidney selectivity, in words” value ([2]; formed after 13c i.v.) was “only a moderate kidney selectivity”. For the same compound, the “plasma clearance, in words” value ([2]; i.v.) was “rapid plasma clearance”, the “plasma exposure, in words” value ([2]; i.v.) was “good plasma exposure” and the concentration at 0.25 h ([2]; kidney, 0.25 h, read-out: Kidney concentration of 8) was 3320 ng/g. The concentration at 1.25 h ([2]; kidney, 1.25 h, read-out: Kidney concentration of 8) was 844 ng/g, the concentration at 2.2 h ([2]; kidney, 2.2 h, read-out: Kidney concentration of 8) was 225 ng/g and the concentration at 7 h ([2]; kidney, 7 h, read-out: Kidney concentration of 8) was 92.4 ng/g. It also gave a concentration at 0.25 h ([2]; liver, 0.25 h, read-out: Liver concentration of 8) of 3100 ng/g, a concentration at 1.25 h ([2]; liver, 1.25 h, read-out: Liver concentration of 8) of 852 ng/g and a concentration at 2.2 h ([2]; liver, 2.2 h, read-out: Liver concentration of 8) of 298 ng/g. It also gave a concentration at 7 h ([2]; liver, 7 h, read-out: Liver concentration of 8) of 116 ng/g, a concentration at 0.25 h ([2]; plasma, 0.25 h, read-out: Plasma concentration of 8) of 964 ng/mL and a concentration at 1.25 h ([2]; plasma, 1.25 h, read-out: Plasma concentration of 8) of 198 ng/mL. It also gave a concentration at 2.2 h ([2]; plasma, 2.2 h, read-out: Plasma concentration of 8) of 39.7 ng/mL and a concentration at 7 h ([2]; plasma, 7 h, read-out: Plasma concentration of 8) of 18.4 ng/mL.
In the case of `C[C@H]1Oc2ccc(F)cc2N(CCOC(=O)NCCN)C(=O)[C@H]1NC(=O)[C@@](C)(O)C(=O)NCC(F)(F)C(F)(F)F.Cl` [Compound 11a, 2-((2R,3S)-7-Fluoro-3-((S)-2-hydroxy-2-methyl-3-oxo-3-(2,2,3,3,3-pentafluoropropylamino)propanamido)-2-methyl-4-oxo-3,4-dihydrobenzo[b][1,4]oxazepin-5(2H)-yl)ethyl 2-aminoethylcarbamate hydrochloride], the “IC50 for blockade” value [1] is reported as “low nanomolar range”, the IC50 [1] is reported as 45.6 nM and the “Plasma concentration of formed 11a” value ([2]; 13a 1.6 mg/kg i.v., 0.25 h) is reported as “BQL”. The “Plasma concentration of formed 11a” value ([2]; 13a 1.6 mg/kg i.v., 0.5 h) was “BQL”, the “Plasma concentration of formed 11a” value ([2]; 13a 1.6 mg/kg i.v., 4 h) was “BQL” and the “Liver concentration of formed 11a” value ([2]; 13a 1.6 mg/kg i.v., 7 h) was “BQL”. The “Plasma concentration of formed 11a” value ([2]; 13a 1.6 mg/kg i.v., 7 h) was “BQL”.
In the case of `CC(=O)N[C@@H](CCC(=O)O)C(=O)NCCNC(=O)OCCN1C(=O)[C@@H](NC(=O)[C@@](C)(O)C(=O)NCC(F)(F)C(F)(F)F)[C@@H](C)Oc2ccc(F)cc21` [Compound 15a, (S)-4-acetamido-5-(2-((2-((2R,3S)-7-fluoro-3-((S)-2-hydroxy-2-methyl-3-oxo-3-(2,2,3,3,3-pentafluoropropylamino)propanamido)-2-methyl-4-oxo-3,4-dihydrobenzo[b][1,4]oxazepin-5(2H)-yl)ethoxy)carbonylamino)ethylamino)-5-oxopentanoic acid], the “IC50 for blockade” value [1] is reported as “high nM range” and the IC50 [1] is reported as 625 nM.
